Our source for the Activity values is ChEMBL document CHEMBL1157949, “Kalanchosine dimalate, an anti-inflammatory salt from Kalanchoe brasiliensis” (J Nat Prod, 2006).

The structures appear in SMILES notation. Activity calls are given as the source filed them. No cut-off for these calls is given here.

The test system of this test is Mus musculus. The test is described as follows: Antiinflammatory activity against zymosan-induced inflammation in mouse assessed as impairment of increase in popliteal lymph node weight at 240 mg/kg, ip administered daily 2 days before zymosan challenge measured after 5 days. Set-up: dose 240 mg/kg. In kind it is functional, organism-based.

For the molecule `NC(CC(=O)O)C(O)C(O)C(N)CC(=O)O` (stereo unspecified), the outcome was Active.
